Assay results from US9532994B2, “Agents and methods for enhancing bone formation by oxysterols in combination with bone morphogenic proteins” (THE REGENTS OF THE UNIVERSITY OF CALIFORNIA, priority 2003, dated 2017).

Legend:
[1] = test system: M2-10B4 mouse marrow stromal cell line; experiment: Matrix mineralization in M2 cells (von Kossa staining, 45Ca incorporation assay); assay type: cell-based; conditions: 0.5-10 μM, as many as 14 days, data not shown
Method: Cells: M2-10B4 mouse marrow stromal cell line obtained from American Type Culture Collection (ATCC, Rockville, Md., U.S.A.) was derived from bone marrow stromal cells of a (C57BL/6J×C3H/HeJ) F1 mouse, and support human and murine myelopoiesis in long-term cultures (as per ATCC) and have the ability to differentiate into osteoblastic and adipocytic cells. Unless specified, these cells were cultured in RPMI 1640 containing 10% heat-inactivated FBS, and supplemented with 1 mM sodium pyruvate, 100 U/ml penicillin, and 100 […] (all from Irvine Scientific).
Von Kossa and oil red O staining—Matrix mineralization in cell monolayers was detected by silver nitrate staining as previously described. Oil red O staining for detection of adipocytes was performed as previously described.
^45Ca incorporation assay—Matrix mineralization in cell monolayers was quantified using the ^45Ca incorporation assay as previously described.
M2 cells at confluence were treated in osteogenic medium with control vehicle or 5 μM oxysterols, alone or in combination as indicated. After 14 days, mineralization was identified by a von Kossa staining, which appears black. FIG. 3C is a depiction of von Kossa staining of M2 cells exposed to various conditions.
M2 cells were treated with control vehicle (C) or a combination of 22R and 20S oxysterols at increasing concentrations. After 14 days, matrix mineralization in cultures was quantified using a ^45Ca incorporation assay. […] FIG. 3D is a bar graph depicting the effect of a combination of oxysterols at various doses on calcium incorporation in M2 cells.
Next, a combination of 22R and 20S oxysterols (RS, 2.5 μM each) were added in the presence or absence of SC as indicated. After 3 days, ALP activity was measured as described earlier. […] (B) M2 cells were treated as described in (A) and after 10 days matrix mineralization in cultures was quantified by a ^45Ca incorporation assay as described earlier. Results from a representative of three experiments are shown, reported as the mean±SD of quadruplicate determinations, normalized to protein concentration. (C) M2 cells were pretreated with 20 μM SC for 4 hours, followed by the addition of RS in the presence or absence of SC as described above. After 8 days, total RNA was isolated and analyzed for osteocalcin (Osc) and 18S rRNA expression by Northern blotting as previously described. Data from densitometric analysis of the Northern blot is shown in (D) as the average of duplicate samples, normalized to 18S rRNA. (E) M2 cells at confluence were pretreated for 2 hours with control vehicle (C), or PLA2 inhibitors ACA (25 μM) and MCOCF3 (MC, 20 μM), in osteogenic medium. Next, a combination of 22R and 20S oxysterols (RS, 2.5 μM) was added in the presence or absence of the inhibitors as indicated. After 3 days, ALP activity was measured as previously described. Data from a representative of three experiments are shown, reported as the mean±SD of quadruplicate determinations, normalized to protein concentration (p<0.01 for RS vs. RS+ACA and RS+MC). (F) M2 cells were treated as described in (E). After 10 days, matrix mineralization in cultures was quantified using a ^45Ca incorporation assay as previously described. Results from a representative of three experiments are shown, reported as the mean of quadruplicate determinations±SD, normalized to protein concentration (p<0.01 for RS vs. RS+ACA and RS+MC).
(A) M2 cells at confluence were pretreated for four hours with RPMI containing 1% FBS, followed by treatment with control vehicle or 5 μM 20S oxysterol for 1, 4, or 8 hours. Next total cell extracts were prepared and analyzed for levels of native or phosphorylated ERK (pERK) using specific antibodies as previously described.

lipoprotein lipase (LPL) = experiment: Northern blotting for lipoprotein lipase in M2 cells; assay type: cell-based, mouse; conditions: 10 μM Tro with 10 μM 20S, 10 days (FIGS. 7C and D)
Method: RNA isolation and Northern blot analysis - Following treatment of cells under appropriate experimental conditions, total RNA was isolated using the RNA isolation kit from Stratagene (La Jolla, Calif., U.S.A.). Total RNA ([…]) was run on a 1% agarose/formaldehyde gel and transferred to Duralon-UV membranes (Strategene, CA, U.S.A.) and cross-linked with UV light. The membranes were hybridized overnight at 60° C. with ^32P-labeled mouse osteocalcin cDNA probe, mouse lipoprotein lipase (LPL), mouse adipocyte protein 2 (aP2) PCR-generated probes, human 28S or 18S rRNA probes obtained from Geneka Biotechnology (Montreal, Quebec, Canada) and Maxim Biotech (San Francisco, CA, U.S.A.), respectively. […] The extent of gene induction was determined by densitometry.
Test 2: (A) M2 cells at confluence were treated in RPMI containing 10% FBS with control vehicle or 10 μM troglitazone (Tro) in the absence or presence of 10 μM 20S or 22S oxysterols. After 10 days, adipocytes were visualized by oil Red O staining and quantified by light microscopy, shown in (B). […] After 10 days, total RNA was isolated and analyzed for lipoprotein lipase (LPL), adipocyte P2 gene (aP2) or 18S rRNA expression by Northern blotting as described (Ref). […]

| Structure (SMILES) | induction of mineralization, individual oxysterols [1] | expression of lipoprotein lipase (LPL) (lipoprotein lipase (LPL)) |
| --- | --- | --- |
| CC(C)CC[C@@H](O)[C@@H](C)[C@H]1CC[C@H]2[C@@H]3CC=C4C[C@@H](O)CC[C@]4(C)[C@H]3CC[C@]12C [22R, 22(R)-hydroxycholesterol] | unable to induce | – |
| CC(C)CCC[C@](C)(O)[C@H]1CC[C@H]2[C@@H]3CC=C4C[C@@H](O)CC[C@]4(C)[C@H]3CC[C@@]21C [20S, 20(S)-hydroxycholesterol] | unable to induce | inhibition of the expression |
| CC(C)CC[C@H](O)[C@@H](C)[C@H]1CC[C@H]2[C@@H]3CC=C4C[C@@H](O)CC[C@]4(C)[C@H]3CC[C@]12C [22S, 22(S)-hydroxycholesterol] | unable to induce | – |
